Reference: ChEMBL document CHEMBL1201862, “PubChem BioAssay data set” (2004)
Several values for one entry are separate records, joined by “and”; a condition that tells them apart may be missing. Equal values may be shown once.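 Growth conditions: 96-well plates. Treatment: test compound, 48 hours, 5 concentrations. Analysis: linear interpolation between bracketing concentrations; unreached endpoints set to highest concentration. GI50 is the concentration that inhibits growth by half.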 Activity calls are given as the source filed them. No stated cut-off is given here; in the data, active = GI50 up to about 1.1 µM and inactive = higher.

Assays:
Assay in all cases: NCI-60 cell line screen, 48 h
CCRF-CEM = tested on: CCRF-CEM
OVCAR-8 = tested on: OVCAR-8
Malme-3M = tested on: Malme-3M
NCI/ADR-RES = tested on: NCI/ADR-RES
HCT-15 = tested on: HCT-15
SK-OV-3 = tested on: SK-OV-3
EKVX = tested on: EKVX
UACC-257 = tested on: UACC-257
SK-MEL-28 = tested on: SK-MEL-28
PC-3 = tested on: PC-3
ACHN = tested on: ACHN
IGROV-1 = tested on: IGROV-1
MDA-MB-231 = tested on: MDA-MB-231
K562 = tested on: K562
HCT-116 = tested on: HCT-116
LOX IMVI = tested on: LOX IMVI
RXF 393 = tested on: RXF 393
COLO 205 = tested on: COLO 205
M14 = tested on: M14
SR = tested on: SR

SMILES	GI50 (CCRF-CEM)	GI50 (OVCAR-8)	GI50 (Malme-3M)	GI50 (NCI/ADR-RES)	GI50 (HCT-15)	GI50 (SK-OV-3)	GI50 (EKVX)	GI50 (UACC-257)	GI50 (SK-MEL-28)	GI50 (PC-3)	GI50 (ACHN)	GI50 (IGROV-1)	GI50 (MDA-MB-231)	GI50 (K562)	GI50 (HCT-116)	GI50 (LOX IMVI)	GI50 (RXF 393)	GI50 (COLO 205)	GI50 (M14)	GI50 (SR)
CN1CCN(c2ccc3nc(C4=C(O)C(=O)[C@@H]5C(=C4O)N=C(CO)N5C)[nH]c3n2)CC1	97.5 µM (inactive)	61.1 µM (inactive)	> 100 µM (inactive)	> 100 µM (inactive)	> 100 µM	> 100 µM (inactive)	> 100 µM (inactive)	> 100 µM (inactive)	> 100 µM (inactive)	69.8 µM (inactive)	> 100 µM (inactive)	> 100 µM (inactive)	62.5 µM (inactive)	24 µM (inactive)	94.2 µM (inactive)	73.1 µM (inactive)	> 100 µM (inactive)	80.5 µM (inactive)	> 100 µM (inactive)	–
CC[C@@H]1CC[C@@H]2[C@H](CC[C@]3(C)[C@@H](O)CC[C@@H]23)[C@H]1CO	> 100 µM (inactive)	> 100 µM (inactive)	> 100 µM (inactive)	91.4 µM (inactive)	> 100 µM	> 100 µM (inactive)	> 100 µM (inactive)	> 100 µM (inactive)	> 100 µM (inactive)	76.4 µM (inactive)	> 100 µM (inactive)	> 100 µM (inactive)	> 100 µM (inactive)	51.1 µM (inactive)	95.7 µM (inactive)	> 100 µM (inactive)	> 100 µM (inactive)	79.8 µM (inactive)	> 100 µM (inactive)	–
O=C(NC(=S)Nc1ccc(Br)cc1)c1ccc2c(c1)Sc1ccccc1O2	> 100 µM (inactive)	50.1 µM (inactive)	> 100 µM (inactive)	> 100 µM (inactive)	> 100 µM	40.2 µM (inactive)	–	> 100 µM (inactive)	> 100 µM (inactive)	> 100 µM (inactive)	60.1 µM (inactive)	49.3 µM (inactive)	58.6 µM (inactive)	> 100 µM (inactive)	> 100 µM (inactive)	> 100 µM (inactive)	–	> 100 µM (inactive)	> 100 µM (inactive)	36.6 µM (inactive)
CCCCCC(C(O)C#N)C(O)(C(F)(F)F)C(F)(F)F (stereo not given)	> 10 µM (inactive)	> 10 µM (inactive)	> 10 µM (inactive)	> 10 µM (inactive)	> 10 µM	> 10 µM (inactive)	–	> 10 µM (inactive)	> 10 µM (inactive)	> 10 µM (inactive)	> 10 µM (inactive)	> 10 µM (inactive)	> 10 µM (inactive)	> 10 µM (inactive)	> 10 µM (inactive)	> 10 µM (inactive)	–	> 10 µM (inactive)	> 10 µM (inactive)	> 10 µM (inactive)
CCNC(=O)c1cc(Cl)ccc1NC(=O)C12CC3CC(CC(C3)C1)C2	23.2 µM (inactive)	34.3 µM (inactive)	> 100 µM (inactive)	47.8 µM (inactive)	32.7 µM	–	21.4 µM (inactive)	30.4 µM (inactive)	35.8 µM (inactive)	32.1 µM (inactive)	44.1 µM (inactive)	33.1 µM (inactive)	71.8 µM (inactive)	28.2 µM (inactive)	31.3 µM (inactive)	42 µM (inactive)	19.2 µM (inactive)	31 µM (inactive)	31.8 µM (inactive)	–
CC1(C)OC2OC(C(COS(=O)(=O)C(F)(F)F)N=[N+]=[N-])C(OC(=O)c3ccccc3)C2O1 (stereo not given)	> 100 µM (inactive)	> 100 µM (inactive)	> 100 µM (inactive)	> 100 µM (inactive)	> 100 µM	> 100 µM (inactive)	> 100 µM (inactive)	> 100 µM (inactive)	> 100 µM (inactive)	> 100 µM (inactive)	> 100 µM (inactive)	–	> 100 µM (inactive)	> 100 µM (inactive)	> 100 µM (inactive)	> 100 µM (inactive)	> 100 µM (inactive) and 59.3 µM (inactive)	> 100 µM (inactive)	> 100 µM (inactive)	–
